Experimental data taken from ChEMBL document CHEMBL1201862, “PubChem BioAssay data set” (2004).
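Five concentrations, 48 hours, 96-well plates. The concentration for 50% growth inhibition is given as GI50.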 Activity calls are given as the source filed them. Cut-off read from the data, not from the text of the source: active = GI50 up to about 1.1 µM and inactive = higher.

Legend:
Assay in all cases: DTP human tumour cell line panel, 48 h
IGROV-1 = system: IGROV-1
EKVX = system: EKVX
SK-MEL-2 = system: SK-MEL-2
Malme-3M = system: Malme-3M
NCI-H226 = system: NCI-H226
KM12 = system: KM12
SF-295 = system: SF-295
CCRF-CEM = system: CCRF-CEM
UACC-62 = system: UACC-62
SNB-19 = system: SNB-19
NCI-H23 = system: NCI-H23
SK-OV-3 = system: SK-OV-3
OVCAR-3 = system: OVCAR-3
MOLT-4 = system: MOLT-4
SK-MEL-28 = system: SK-MEL-28
HOP-62 = system: HOP-62
K562 = system: K562
CAKI-1 = system: CAKI-1

Structure (SMILES) | GI50 (IGROV-1) | GI50 (EKVX) | GI50 (SK-MEL-2) | GI50 (Malme-3M) | GI50 (NCI-H226) | GI50 (KM12) | GI50 (SF-295) | GI50 (CCRF-CEM) | GI50 (UACC-62) | GI50 (SNB-19) | GI50 (NCI-H23) | GI50 (SK-OV-3) | GI50 (OVCAR-3) | GI50 (MOLT-4) | GI50 (SK-MEL-28) | GI50 (HOP-62) | GI50 (K562) | GI50 (CAKI-1)
COc1ccc2c(c1)C(=O)c1ccc(OC)cc1C2=S | > 100 µM (inactive) | > 100 µM (inactive) | > 100 µM (inactive) | > 100 µM (inactive) | > 100 µM (inactive) | > 100 µM (inactive) | > 100 µM (inactive) | 25.5 µM (inactive) | 49.1 µM (inactive) | > 100 µM (inactive) | > 100 µM (inactive) | > 100 µM (inactive) | > 100 µM (inactive) | > 100 µM (inactive) | > 100 µM (inactive) | > 100 µM (inactive) | > 100 µM (inactive) | –
COC(=O)c1csnn1 | > 100 µM (inactive) | > 100 µM (inactive) | – | > 100 µM (inactive) | > 100 µM (inactive) | > 100 µM (inactive) | > 100 µM (inactive) | > 100 µM (inactive) | > 100 µM (inactive) | > 100 µM (inactive) | > 100 µM (inactive) | > 100 µM (inactive) | > 100 µM (inactive) | > 100 µM (inactive) | > 100 µM (inactive) | > 100 µM (inactive) | > 100 µM (inactive) | –
CC(=O)NC(CCCNC(=O)NCCCl)C(=O)NCc1ccccc1 (centres undefined) | – | > 100 µM (inactive) | > 100 µM (inactive) | > 100 µM (inactive) | > 100 µM (inactive) | > 100 µM (inactive) | > 100 µM (inactive) | > 100 µM (inactive) | > 100 µM (inactive) | > 100 µM (inactive) | > 100 µM (inactive) | – | > 100 µM (inactive) | > 100 µM (inactive) | > 100 µM (inactive) | > 100 µM (inactive) | > 100 µM (inactive) | > 100 µM (inactive)
O=C(O)c1ccccc1Cc1ccco1 | > 100 µM (inactive) | > 100 µM (inactive) | > 100 µM (inactive) | > 100 µM (inactive) | > 100 µM (inactive) | > 100 µM (inactive) | > 100 µM (inactive) | – | > 100 µM (inactive) | > 100 µM (inactive) | > 100 µM (inactive) | > 100 µM (inactive) | > 100 µM (inactive) | > 100 µM (inactive) | – | > 100 µM (inactive) | > 100 µM (inactive) | > 100 µM (inactive)
CCc1cccc(C)c1NS(=O)(=O)c1ccccc1 | > 100 µM (inactive) | > 100 µM (inactive) | > 100 µM (inactive) | > 100 µM (inactive) | 24.3 µM (inactive) | > 100 µM (inactive) | > 100 µM (inactive) | > 100 µM (inactive) | > 100 µM (inactive) | – | > 100 µM (inactive) | > 100 µM (inactive) | > 100 µM (inactive) | > 100 µM (inactive) | > 100 µM (inactive) | > 100 µM (inactive) | > 100 µM (inactive) | > 100 µM (inactive)
CC1=C(C(=O)CC(=O)C(=O)Nc2cc(C)ccc2C)Sc2ccccc2N1 | > 100 µM (inactive) | > 100 µM (inactive) | > 100 µM (inactive) | > 100 µM (inactive) | > 100 µM (inactive) | > 100 µM (inactive) | 32 µM (inactive) | 80.9 µM (inactive) | > 100 µM (inactive) | > 100 µM (inactive) | > 100 µM (inactive) | > 100 µM (inactive) | > 100 µM (inactive) | 66.7 µM (inactive) | > 100 µM (inactive) | > 100 µM (inactive) | > 100 µM (inactive) | > 100 µM (inactive)
CCOP(=O)(OCC)/C(C#N)=C/c1ccc[nH]1 | – | – | > 100 µM (inactive) | > 100 µM (inactive) | > 100 µM (inactive) | > 100 µM (inactive) | > 100 µM (inactive) | > 100 µM (inactive) | > 100 µM (inactive) | > 100 µM (inactive) | > 100 µM (inactive) | > 100 µM (inactive) | > 100 µM (inactive) | > 100 µM (inactive) | > 100 µM (inactive) | > 100 µM (inactive) | > 100 µM (inactive) | > 100 µM (inactive)
CN(c1ccccc1)C1C(=O)N(c2ccccc2)C1/C=C/c1ccccc1 (centres undefined) | > 100 µM (inactive) | > 100 µM (inactive) | > 100 µM (inactive) | > 100 µM (inactive) | > 100 µM (inactive) | > 100 µM (inactive) | > 100 µM (inactive) | > 100 µM (inactive) | 72.6 µM (inactive) | > 100 µM (inactive) | > 100 µM (inactive) | > 100 µM (inactive) | > 100 µM (inactive) | > 100 µM (inactive) | > 100 µM (inactive) | – | – | > 100 µM (inactive)
CN(C)CN(C)c1nc(N(C)C)nc(N(C)C)n1 | > 100 µM (inactive) | > 100 µM (inactive) | > 100 µM (inactive) | > 100 µM (inactive) | – | > 100 µM (inactive) | > 100 µM (inactive) | > 100 µM (inactive) | > 100 µM (inactive) | > 100 µM (inactive) | > 100 µM (inactive) | > 100 µM (inactive) | > 100 µM (inactive) | > 100 µM (inactive) | > 100 µM (inactive) | > 100 µM (inactive) | > 100 µM (inactive) | > 100 µM (inactive)
O=C(c1ccccc1)[C@H]1Nc2ccc(Cl)cc2C2c3ccccc3CC21 (some centres undefined) | > 100 µM (inactive) | – | 67 µM (inactive) | > 10 µM (inactive) | 36.7 µM (inactive) | > 100 µM (inactive) | 18.5 µM (inactive) | – | > 10 µM (inactive) | > 100 µM (inactive) | 60.3 µM (inactive) | – | 21 µM (inactive) | 11.9 µM (inactive) | 32.3 µM (inactive) | 46.1 µM (inactive) | 25.6 µM (inactive) | > 100 µM (inactive)
O=C1C=C(Nc2ccccc2C(=O)CC(=O)C(=O)Nc2ccc(Cl)cc2)c2ccccc2C1=O | 27.4 µM (inactive) | 32.4 µM (inactive) | 17.2 µM (inactive) | 11.8 µM (inactive) | 24.4 µM (inactive) | 14.6 µM (inactive) | – | 3.59 µM (inactive) | 13.3 µM (inactive) | 14 µM (inactive) | 9.91 µM (inactive) | 26.2 µM (inactive) | 2.39 µM (inactive) | 5.05 µM (inactive) | 16.7 µM (inactive) | 17.7 µM (inactive) | 3.24 µM (inactive) | 29.8 µM (inactive)
COc1cc2ccnc3c(=C(SC)SC)c(=O)c(c1OC)c23 | 21 µM (inactive) | > 10 µM (inactive) | 16.2 µM (inactive) | 11.4 µM (inactive) | – | 22.4 µM (inactive) | 58.1 µM (inactive) | 2.86 µM (inactive) | 17.8 µM (inactive) | 53.2 µM (inactive) | > 10 µM (inactive) | > 100 µM (inactive) | 14.9 µM (inactive) | 4.6 µM (inactive) | 13 µM (inactive) | > 100 µM (inactive) | 3.29 µM (inactive) | 10.3 µM (inactive)
Cc1cc(C)c(/C=N/NS(=O)(=O)c2ccccc2)c(C)c1 | > 100 µM (inactive) | 62.7 µM (inactive) | > 100 µM (inactive) | > 100 µM (inactive) | > 100 µM (inactive) | > 100 µM (inactive) | 38.5 µM (inactive) | 62.8 µM (inactive) | > 100 µM (inactive) | – | 54.3 µM (inactive) | > 100 µM (inactive) | 47.6 µM (inactive) | 44.7 µM (inactive) | > 100 µM (inactive) | > 100 µM (inactive) | 94.4 µM (inactive) | 76.6 µM (inactive)
COc1cc(=O)oc(/C=C/CO)c1C | > 100 µM (inactive) | > 100 µM (inactive) | – | > 100 µM (inactive) | > 100 µM (inactive) | > 100 µM (inactive) | > 100 µM (inactive) | > 100 µM (inactive) | > 100 µM (inactive) | > 100 µM (inactive) | > 100 µM (inactive) | > 100 µM (inactive) | > 100 µM (inactive) | > 100 µM (inactive) | > 100 µM (inactive) | > 100 µM (inactive) | > 100 µM (inactive) | > 100 µM (inactive)
C1=CC=C2NCCCCCC/N=C3\C=CC=CC=C3NCCc3cccc(c3)CC/N=C/2C=C1 | 16.9 µM (inactive) | 37 µM (inactive) | 26.9 µM (inactive) | 35.3 µM (inactive) | 32.5 µM (inactive) | 14.7 µM (inactive) | 16.9 µM (inactive) | 15.9 µM (inactive) | 21.7 µM (inactive) | 26.5 µM (inactive) | 13.1 µM (inactive) | 25.5 µM (inactive) | 27.7 µM (inactive) | 7.78 µM (inactive) | – | 10 µM (inactive) | 4.59 µM (inactive) | 33.3 µM (inactive)
COc1ccc2nc3cc(Cl)ccc3c(Sc3ccccc3[N+](=O)[O-])c2c1 | > 100 µM (inactive) | > 100 µM (inactive) | > 100 µM (inactive) | > 100 µM (inactive) | 17.7 µM (inactive) | > 100 µM (inactive) | > 100 µM (inactive) | > 100 µM (inactive) | > 100 µM (inactive) | > 100 µM (inactive) | > 100 µM (inactive) | 58.1 µM (inactive) | > 100 µM (inactive) | > 100 µM (inactive) | > 100 µM (inactive) | 69 µM (inactive) | > 100 µM (inactive) | > 100 µM (inactive)
O=S(O)CCCCSSCc1ccccc1CSSCCCCS(=O)O | 49.4 µM (inactive) | 22.2 µM (inactive) | 35.2 µM (inactive) | 8.91 µM (inactive) | – | 19 µM (inactive) | 17 µM (inactive) | 3.88 µM (inactive) | 10.5 µM (inactive) | 56.2 µM (inactive) | 18 µM (inactive) | > 100 µM (inactive) | 10.5 µM (inactive) | 0.904 µM (active) | 13.1 µM (inactive) | 35.3 µM (inactive) | 16.6 µM (inactive) | 25.8 µM (inactive)
